# Test results taken from PubChem BioAssay (NCI).
#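 Cells were grown in 96-well plates and exposed to each compound for 48 hours at five concentrations; endpoints were interpolated linearly between bracketing concentrations, or set to the highest concentration if not reached. GI50: concentration for 50% inhibition of growth. TGI: concentration producing complete growth inhibition.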
# Columns and labels:
# Test in all cases: NCI-60 cell line screen, 48 h
# A498 renal = test system: A498 renal
# HCT-15 colon = test system: HCT-15 colon
# HOP-62 NSCLC = test system: HOP-62 NSCLC
# K-562 leukemia = test system: K-562 leukemia
# KM12 colon = test system: KM12 colon
# M14 melanoma = test system: M14 melanoma
# NCI-H226 lung = test system: NCI-H226 lung
# OVCAR-8 ovarian = test system: OVCAR-8 ovarian
# SK-MEL-28 melanoma = test system: SK-MEL-28 melanoma
# SNB-19 CNS = test system: SNB-19 CNS
Compound,GI50 (A498 renal),TGI (A498 renal),GI50 (HCT-15 colon),TGI (HCT-15 colon),GI50 (HOP-62 NSCLC),TGI (HOP-62 NSCLC),TGI (K-562 leukemia),GI50 (KM12 colon),TGI (KM12 colon),GI50 (M14 melanoma),TGI (M14 melanoma),GI50 (NCI-H226 lung),TGI (NCI-H226 lung),GI50 (OVCAR-8 ovarian),TGI (OVCAR-8 ovarian),GI50 (SK-MEL-28 melanoma),TGI (SK-MEL-28 melanoma),GI50 (SNB-19 CNS),TGI (SNB-19 CNS),GI50 (K-562 leukemia)
COc1cc2ncnc(Oc3ccc(NC(=O)Nc4ccc(CN5CCOCC5)c(C(F)(F)F)c4)c4ccccc34)c2cc1OC,0.0424 µM,0.584 µM,1.04 µM,4.7 µM,2.5 µM,10.1 µM,1.5 µM,0.199 µM,2.3 µM,0.935 µM,4.14 µM,0.264 µM,16 µM,0.537 µM,6.53 µM,0.666 µM,3.03 µM,2.35 µM,12.2 µM,
Cc1cc(I)cc(CN(C)CCCN2CCC(C)CC2)c1O,7.53 µM,21.2 µM,12.1 µM,26.7 µM,14.1 µM,27.2 µM,35.7 µM,13.1 µM,27.9 µM,13.7 µM,26.8 µM,17.2 µM,39.1 µM,16.7 µM,33.5 µM,12.1 µM,24.5 µM,16.4 µM,34 µM,10.9 µM
CC1C(c2ccccc2)N(C)C(c2ccccc2)C(C)C1(O)c1ccccc1 (centres undefined),,> 100 µM,,> 100 µM,,> 100 µM,> 100 µM,,> 100 µM,,> 100 µM,,> 100 µM,,> 100 µM,,> 100 µM,,> 100 µM,
C[C@@H]1CC[C@@H]2[C@@H]1[C@H](OC(=O)/C=C/C1CCCCC1)[C@]1(C3CCCCC3)C[C@@H](OC(=O)CO)[C@@]2(C)O1,0.0209 µM,0.0801 µM,14 µM,26.7 µM,14.6 µM,27.5 µM,35.9 µM,14.8 µM,31.1 µM,14.8 µM,31.6 µM,14.3 µM,28 µM,10.7 µM,24.1 µM,15.1 µM,29.6 µM,14.4 µM,27 µM,15.9 µM
OC(c1cc(C(F)(F)F)nc2c(Cl)cc(Cl)cc12)C1CCCCN1 (centres undefined),,> 51.4 µM,,27.4 µM,,18.5 µM,> 34.1 µM,,19.3 µM,,> 44 µM,,35.1 µM,,32.5 µM,,29.5 µM,,> 52.3 µM,
NC1CC(=O)c2c(-c3cccs3)sc(-c3cccs3)c21 (centres undefined),77.8 µM,> 100 µM,3.04 µM,22.4 µM,73.4 µM,> 100 µM,> 100 µM,25 µM,> 100 µM,37.3 µM,> 100 µM,21.6 µM,48.3 µM,30.2 µM,> 100 µM,19.2 µM,39.7 µM,36 µM,> 100 µM,25 µM
CC1(C)OCC2OC(n3cnc4c(N)nc(Cl)nc43)C(OS(C)(=O)=O)C2O1 (centres undefined),,> 100 µM,,> 100 µM,,> 100 µM,> 100 µM,,> 100 µM,,> 100 µM,,> 100 µM,,> 100 µM,,> 100 µM,,> 100 µM,
COc1cc2[nH]c3c(c2cc1OC)CCN[C@@]31CC[C@@]2(CC3c4c(cc(OC)c(O)c42)CCN3C)C[C@@H]1OC (some centres undefined),,> 96.9 µM,,> 100 µM,,> 100 µM,56.5 µM,,> 85 µM,,34.1 µM,,> 100 µM,,> 100 µM,,33.5 µM,,> 100 µM,
O=C(CC12C3C4C1C1C2C3C41CC(=O)NO)NO (centres undefined),,76.1 µM,,> 100 µM,,> 100 µM,87.1 µM,,> 100 µM,,> 100 µM,,94.3 µM,,> 100 µM,,> 100 µM,,> 100 µM,
Clc1cnc(Nc2ccc(OCCN3CCCC3)cc2)nc1NCc1ccco1,1.45 µM,3.88 µM,2.72 µM,11.8 µM,2.24 µM,6.58 µM,52.6 µM,0.643 µM,10.1 µM,2.46 µM,9.55 µM,0.671 µM,11.3 µM,3.54 µM,13.7 µM,3.29 µM,10.7 µM,3.51 µM,13.5 µM,3.19 µM
C=CCc1c(O)c(C(=O)/C=C/c2ccc(Cl)cc2)c(OC)c2ccoc12,2.77 µM,13 µM,3.4 µM,12.9 µM,2.31 µM,5.76 µM,> 100 µM,3.72 µM,13 µM,5.08 µM,29.2 µM,1.52 µM,2.97 µM,3.04 µM,12 µM,2.32 µM,5.53 µM,2.85 µM,8.15 µM,3.25 µM
CCN1CCN(C(=O)[C@]23CC[C@@H](C)[C@H](C)[C@@H]2C2=CC[C@@H]4[C@@]5(C)CCC(=O)C(C)(C)[C@@H]5CC[C@@]4(C)[C@]2(C)CC3)CC1,0.927 µM,2.42 µM,0.977 µM,2.39 µM,1.38 µM,3.09 µM,2.9 µM,1.03 µM,2.22 µM,0.794 µM,1.61 µM,1.78 µM,7.01 µM,1.1 µM,2.89 µM,0.889 µM,1.7 µM,0.849 µM,1.72 µM,0.994 µM
COc1cc(OC)c(/C=C/C(=O)c2c(OC)cc(OC)cc2OC)c(OC)c1,0.27 µM,4.85 µM,0.458 µM,33.4 µM,1.27 µM,> 100 µM,> 100 µM,0.469 µM,2.57 µM,0.38 µM,1.78 µM,3.41 µM,> 100 µM,3.43 µM,> 100 µM,0.855 µM,5.24 µM,2.54 µM,14.9 µM,0.394 µM
CC1Cc2c(Cl)ncnc2N(C)c2ccccc21 (centres undefined),1.98 µM,5.41 µM,3 µM,11.3 µM,3.08 µM,14.7 µM,> 100 µM,3.33 µM,> 100 µM,2.77 µM,17.3 µM,2.05 µM,21.7 µM,3.42 µM,27.3 µM,1.82 µM,26.5 µM,4.72 µM,> 100 µM,4.44 µM
